Results on 2 molecules are retold here after paper PMC5577134 (Nature Communications, 2017).

The subject of data set [1] is Mycobacterium tuberculosis H37Rv. Details: method as in earlier work. Conditions: M. tuberculosis H37Rv; cited from earlier work.
A short description of data set [2]: Epimerization/interconversion of hemiaminal isomers followed by HPLC. It is filed as physicochemical. Conditions: non-aqueous solvents. From the text: An interesting feature we identified during HPLC studies is that compounds 7 and 6 epimerize/interconvert in […] solvents (e.g., MeOH or CH3CN); this interconversion also was noted under neat conditions following periods of long-term storage. […] The possibility interchange of these two pairs of compounds was postulated (Supplementary Fig. 34B). […] It is indeed interesting to consider that cyclic hemiaminal installation in ilamycins C1, C2, E1, and E2 is likely reflective of a transient C33 aldehyde and that the αOH orientation is preferred; presumably this is driven to some extent by the fixed stereochemical orientations at C24 and C32 in each respective case (Fig. 3f). By virtue of this interconversion chemistry it is significant to note that assays carried out with these agents likely involved the use of isomeric mixtures of 6/7 and 3/4 and no one specific isomer.

Broadly, the MIC is the least concentration at which growth counts as inhibited. As to `CC=CCC1NC(=O)C(CC(C)C)N2C(=O)C(CC(C)C2O)N(C)C(=O)C(C)NC(=O)C(Cc2ccc(O)c([N+](=O)[O-])c2)NC(=O)C(CC(C)C)N(C)C(=O)C(Cc2cn(C(C)(C)C3CO3)c3ccccc23)NC1=O` (centres unmarked) [compound 3, ilamycin C1], in data set [1], the minimal inhibitory concentration (MIC) was less than 1.3 µg/mL. As for `C=CC(C)(C)n1cc(C[C@@H]2NC(=O)[C@H](C/C=C/C)NC(=O)[C@H](CC(C)C)N3C(=O)[C@H](C[C@H](C)[C@H]3O)N(C)C(=O)[C@H](C)NC(=O)[C@H](Cc3ccc(O)c([N+](=O)[O-])c3)NC(=O)[C@H](CC(C)C)N(C)C2=O)c2ccccc21` [compound 6, ilamycin E1], the stability entry in data set [2] is “reasonably stable”.
